Measurements taken from patent publication US4472388A, “N-Methanesulfonic acid derivatives of 3-O-demethylistamycin B and production thereof” (Zaidan Hojin Biseibutsu Kagaku Kenkyu Kai, priority 1982, dated 1984).
Converted amounts (≈) assume the structure as drawn.

Key:
Providencia Pv 16 = test: Minimum inhibitory concentration, serial dilution on Mueller-Hinton agar; type: cell-based; conditions: 17 hours; for Minimum inhibitory concentration: 37° C.
Excerpt: (§1) Minimum inhibitory concentrations (mcg/ml) of the parent 3-O-demethylistamycin B were also estimated in the same manner for the comparison purpose and also are shown in Table 1.

[1] = test system: Staphylococcus aureus Ap01; test: as above; type: cell-based; conditions: 37° C., 17 hours
Excerpt: as §1

[2] = test system: Pseudomonas aeruginosa GN315; test: as above; type: cell-based; conditions: for Minimum inhibitory concentration: Pseudomonas aeruginosa GN315, Mueller-Hinton agar, 37° C., 17 hours
Excerpt: as §1

[3] = test system: Staphylococcus aureus 209P; test: as above; type: cell-based; conditions: 37° C., 17 hours
Excerpt: as §1

[4] = test system: Pseudomonas aeruginosa TI-13; test: as above; type: cell-based; conditions: for Minimum inhibitory concentration: Pseudomonas aeruginosa TI-13, Mueller-Hinton agar, 37° C., 17 hours
Excerpt: as §1

[5] = test system: Pseudomonas aeruginosa A3; test: as above; type: cell-based; conditions: for Minimum inhibitory concentration: Pseudomonas aeruginosa A3, Mueller-Hinton agar, 37° C., 17 hours
Excerpt: as §1

Serratia marcescens = test: as above; type: cell-based; conditions: for Minimum inhibitory concentration: Mueller-Hinton agar, 37° C., 17 hours
Excerpt: as §1

[6] = test system: Pseudomonas aeruginosa H9; test: as above; type: cell-based; conditions: 37° C., 17 hours
Excerpt: as §1

[7] = test system: Escherichia coli JR66/W677; test: as above; type: cell-based; conditions: for Minimum inhibitory concentration: Escherichia coli JR66/W677, Mueller-Hinton agar, 37° C., 17 hours
Excerpt: as §1

[8] = test system: Escherichia coli K-12 LA290 R55; test: as above; type: cell-based
Excerpt: as §1

Escherichia coli K-12 R5 = test: as above; type: cell-based
Excerpt: as §1

[9] = test system: gram-negative and gram-positive bacteria, including Pseudomonas aeruginosa; conditions: cited earlier filings; cited from earlier work
[10] = test system: Escherichia coli K-12 C600 R135; test: Minimum inhibitory concentration, serial dilution on Mueller-Hinton agar; type: cell-based; conditions: K12C600R135, 37° C., 17 hours
Excerpt: as §1

[11] = test system: Escherichia coli K-12 ML1629; test: as above; type: cell-based; conditions: K12ML1629, 37° C., 17 hours
Excerpt: as §1

Escherichia coli K-12 = test: as above; type: cell-based; conditions: K12, 37° C., 17 hours
Excerpt: as §1

Escherichia coli JR225 = test: as above; type: cell-based; conditions: JR225, 17 h, read-out: Minimum inhibitory concentration
Excerpt: as §1

[12] = Acute toxicity, intravenous administration in mice; type: in vivo; conditions: ICR mice
Method: A test compound was diissolved in 0.25 ml of a physiological saline solution and the solution of the test compound so prepared was intravenously administered into a series of mouse groups each consisting of six mice (ICR strain, adult female, body weight 20 g±0.5 g) as the test animal, […] Acute toxicity of 3-O-demethylistamycin B was also estimated in the same manner as above for the comparison purpose. […]

Row | Compound | Minimum inhibitory concentration (Providencia Pv 16) [µg/mL] | Minimum inhibitory concentration [1] [µg/mL] | Minimum inhibitory concentration [2] [µg/mL] | Minimum inhibitory concentration [3] [µg/mL] | Minimum inhibitory concentration [4] [µg/mL] | Minimum inhibitory concentration [5] [µg/mL] | Minimum inhibitory concentration (Serratia marcescens) [µg/mL] | Minimum inhibitory concentration [6] [µg/mL] | Minimum inhibitory concentration [7] [µg/mL] | further results
1 | 3-O-demethylistamycin B-di-N-methanesulfonic acid sodium salt [Compound (2)] | 3.13 | 1.56 | 6.25 | 1.56 | 6.25 | 3.13 | 12.5 | 12.5 | 6.25 | 
2 | 3-O-demethylistamycin B-mono-N-methanesulfonic acid sodium salt [Compound (1)] | 3.13 | 1.56 | 12.5 | 0.78 | 6.25 | 0.78 | 6.25 | 12.5 | 6.25 | 
3 | 3-O-demethylistamycin B-tetra-N-methanesulfonic acid sodium salt [Compound (4)] | 6.25 | 3.13 | 25 | 1.56 | 25 | 1.56 | 25 | 25 | 25 | Minimum inhibitory concentration ([8]; Escherichia coli K-12 LA290 R55, Mueller-Hinton agar, 37° C., 17 hours): 12.5 µg/mL; Minimum inhibitory concentration (Escherichia coli K-12 R5; Escherichia coli K-12 R5, Mueller-Hinton agar, 37° C., 17 hours): 25 µg/mL
4 | 3-O-demethylistamycin B-tri-N-methanesulfonic acid sodium salt [Compound (3)] | 3.13 | 1.56 | 12.5 | 0.78 | 6.25 | 0.78 | 12.5 | 12.5 | 6.25 | 
5 | CNCC1CCC(N)C(OC2C(N)CC(O)C(N(C)C(=O)CN)C2O)O1 (centres unmarked) [3-O-demethylistamycin B] |  |  |  |  |  |  |  |  |  | antibacterial activity [9]: high antibacterial activity; MIC (Providencia Pv 16; PV16, 37° C.): 0.78 µg/mL (≈ 2.08 µM); MIC [1]: 0.39 µg/mL (≈ 1.04 µM); MIC ([2]; Pseudomonas aeruginosa, GN315, 17 h, read-out: Minimum inhibitory concentration): 6.25 µg/mL (≈ 16.6 µM); MIC [10]: 1.56 µg/mL (≈ 4.15 µM); MIC [11]: 1.56 µg/mL (≈ 4.15 µM); MIC [3]: 0.39 µg/mL (≈ 1.04 µM); MIC ([8]; Escherichia coli, K12LA290R55, 17 h, read-out: Minimum inhibitory concentration): 0.78 µg/mL (≈ 2.08 µM); MIC ([4]; Pseudomonas aeruginosa, TI13, 17 h, read-out: Minimum inhibitory concentration): 6.25 µg/mL (≈ 16.6 µM); MIC (Escherichia coli K-12 R5; Escherichia coli, K12R5, 17 h, read-out: Minimum inhibitory concentration): 3.13 µg/mL (≈ 8.34 µM); MIC ([5]; Pseudomonas aeruginosa, A3, 17 h, read-out: Minimum inhibitory concentration): 0.2 µg/mL (≈ 0.533 µM); MIC (Escherichia coli K-12): 0.78 µg/mL (≈ 2.08 µM); MIC (Serratia marcescens; 17 h, read-out: Minimum inhibitory concentration): 1.56 µg/mL (≈ 4.15 µM); MIC (Escherichia coli JR225): 0.78 µg/mL (≈ 2.08 µM); MIC [6]: 12.5 µg/mL (≈ 33.3 µM); MIC ([7]; Escherichia coli, JR66/W677, 17 h, read-out: Minimum inhibitory concentration): 1.56 µg/mL (≈ 4.15 µM); death of mice ([12]; 320 mg/kg, within 24 hours): all mice died within 24 hours; LD50 ([12]; mouse, in vivo, adult female): 160 to 320 mg/kg
